According to patent US11180511B2, “Diagnosis, treatment and prevention of neurotensin receptor-related conditions” (Friedrich-Alexander-Universitat Erlangen-Nurnberg, priority 2016, dated 2021):

Experiments:
hNTS1 = hNTS1 (Homo sapiens, UniProt P30989); test: competitive radioligand binding, hNTS1; settings: [^3H]NT; CHO
Description: (§1) Affinities for NTS1 and NTS2 as well as for dopaminergic and serotonergic receptors were determined in competitive radioligand binding assays using appropriate radioligands as shown in Table 1.

hNTS2 = hNTS2 (Homo sapiens, UniProt O95665); test: competitive radioligand binding, hNTS2; settings: [^3H]NT (8-13); HEK
Description: as §1

hD1 = hD1 (Homo sapiens, UniProt P21728); test: competitive radioligand binding, hD1; settings: [^3H] SCH 23990
Description: as §1

hD5 = hD5 (Homo sapiens, UniProt P21918); test: competitive radioligand binding, hD5; settings: [^3H] SCH 23990
Description: as §1

hD2long = hD2long (Homo sapiens, UniProt P14416); test: competitive radioligand binding, hD2long; settings: [^3H] spiperone
Description: as §1

hD2short = hD2short (Homo sapiens, UniProt P14416); test: competitive radioligand binding, hD2short; settings: [^3H] spiperone
Description: as §1

hD3 = hD3 (Homo sapiens, UniProt P35462); test: competitive radioligand binding, hD3; settings: [^3H] spiperone
Description: as §1

hD4.4 = target: T1, hD4.4 (Homo sapiens, UniProt P21917); test: competitive radioligand binding, hD4.4; settings: [^3H] spiperone
T1 sequence (P21917 1-419): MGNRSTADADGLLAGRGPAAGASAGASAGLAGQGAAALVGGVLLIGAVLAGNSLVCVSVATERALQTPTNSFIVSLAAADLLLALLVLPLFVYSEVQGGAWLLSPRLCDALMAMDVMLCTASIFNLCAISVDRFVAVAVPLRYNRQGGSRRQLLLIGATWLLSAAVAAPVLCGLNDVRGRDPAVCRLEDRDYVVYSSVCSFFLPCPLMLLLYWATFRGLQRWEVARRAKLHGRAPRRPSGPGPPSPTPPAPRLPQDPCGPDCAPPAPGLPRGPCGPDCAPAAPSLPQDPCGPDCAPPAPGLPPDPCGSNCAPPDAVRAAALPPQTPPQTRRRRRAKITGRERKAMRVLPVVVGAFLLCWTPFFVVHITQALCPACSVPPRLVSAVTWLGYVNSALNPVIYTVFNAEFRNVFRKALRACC
Description: as §1

p5-HT1A = target: T2, p5-HT1A (Sus scrofa, UniProt A0A4X1UTF5); test: competitive radioligand binding, p5-HT1A; settings: [^3H] WAY600135
T2 sequence (A0A4X1UTF5 1-422): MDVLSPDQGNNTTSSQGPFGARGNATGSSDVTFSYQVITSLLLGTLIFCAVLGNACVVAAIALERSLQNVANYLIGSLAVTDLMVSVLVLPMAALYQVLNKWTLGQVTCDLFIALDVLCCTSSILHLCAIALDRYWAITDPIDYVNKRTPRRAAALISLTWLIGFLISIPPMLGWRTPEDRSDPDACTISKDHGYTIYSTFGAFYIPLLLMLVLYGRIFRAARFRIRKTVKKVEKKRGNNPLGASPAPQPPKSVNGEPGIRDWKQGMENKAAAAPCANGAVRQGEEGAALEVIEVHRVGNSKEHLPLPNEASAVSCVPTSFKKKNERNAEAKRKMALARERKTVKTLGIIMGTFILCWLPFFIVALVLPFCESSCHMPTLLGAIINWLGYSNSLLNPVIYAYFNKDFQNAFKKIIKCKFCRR
Description: as §1

h5-HT2 = h5-HT2 (Homo sapiens, UniProt P28223); test: competitive radioligand binding, h5-HT2; settings: [^3H] ketanserin
Description: as §1

pα1 = test: competitive radioligand binding, pα1; settings: [^3H] prazosine
[1] = Stability in human plasma; assay type: in vitro ADME; settings: 37° C., up to 7 days
Description: An aliquot of ^177Lu-14 (FAUC Lu469) in PBS (50 μL) was added to human plasma (200 μL) and incubated at 37° C. Aliquots (25 μL) were taken at various time intervals (1 h, 4 h, 24 h, 96 h, 7 days) and quenched with acetonitrile/0.1% TFA (1:1, 100 μL). The samples were centrifuged, and the supernatants were analyzed by radio-HPLC.

[2] = Determination of partition coefficient (log D7.4); assay type: physicochemical; settings: 1-octanol/PBS pH 7.4, room temperature
Description: The lipophilicity of ^177Lu-14 (FAUC Lu469) was assessed by determination of the water-octanol partition coefficient. 1-Octanol (0.5 mL) was added to a solution of approximately 25 kBq of ^177Lu-14 in PBS (0.5 mL, pH 7.4) and the layers were vigorously mixed for 3 min at room temperature. The tubes were centrifuged (14000 rpm, 1 min) and three samples of 100 μL of each layer were counted in a γ-counter (Wallac Wizard). The partition coefficient was determined by calculating the ratio cpm (octanol)/cpm (PBS) and expressed as log D74) log(cpmoctanol/cpmbuffer). The experiments were performed in triplicates. The log D7.4 value was determined to be −1.8±0.1 (mean value±standard deviation, n=6).

[3] = Biodistribution in xenografted nude mice, normal tissue; assay type: in vivo, Athymic nude mice (nu/nu); settings: i.v.
Description: (§2) Athymic nude mice (nu/nu) were obtained from Harlan Winkelmann GmbH (Borchen, Germany) at 4 weeks of age and were kept under standard conditions (12 h light/dark) with food and water available ad libitum. AsPC-1, PC-3 or HT29 cells were harvested and suspended in sterile PBS at a concentration of 2×10^7 cells/ml. Viable cells (2×10^6) in PBS (100 μL) were injected subcutaneously in the back. Two weeks after inoculation (tumor weight: 400-800 mg), the mice (about 10-12 weeks old with about 40 g body weight) were used for biodistribution studies.
(§3) The xenografted mice were injected with ^177Lu-14 (FAUC Lu469, 1 MBq/mouse) intravenously into the tail vein. The mice were sacrificed by cervical dislocation at 24 h and 48 h post-injection (p.i.). Tumors and other tissues (blood, lung, liver, kidneys, heart, brain, muscle and intestine) were removed and weighed. Radioactivity of the dissected tissues was determined using a γ-counter. Results were expressed as percentage of injected dose per gram of tissue (% ID/g), and tumor-to-organ ratios were calculated. Results are reported as percent injected dose per gram (% ID/g) in Table 2 and FIG. 1.

HT29 = test: Biodistribution in xenografted nude mice, HT29 tumor uptake; assay type: in vivo, Athymic nude mice (nu/nu); settings: i.v.
Description: as §2, §3

PC3 = test: Biodistribution in xenografted nude mice, PC3 tumor uptake; assay type: in vivo, Athymic nude mice (nu/nu); settings: i.v.
Description: as §2, §3

AsPC1 = test: Biodistribution in xenografted nude mice, AsPC1 tumor uptake; assay type: in vivo, Athymic nude mice (nu/nu); settings: for Uptake AsPC1 tumor: i.v.
Description: as §2
as §3, with “The mice were sacrificed by cervical dislocation at 24 h and 48 h post-injection (p.i.).” left out

PC1-3 tumors = test: Therapy study, PC1-3 tumors, single-dose administration; assay type: in vivo, Nude mice; settings: single dose 30±9 MBq/animal
Description: Nude mice bearing PC1-3 tumors at the back were used for the therapy study. One week after inoculation of the PC1-3 cells, ^177Lu-14 (FAUC Lu469) was injected in four mice at a dose of 30±9 MBq/animal. Eight additional animals were injected with saline as control animals. The body weight and the tumor diameter was measured every three days. […] The tumor inhibition growth factor was 64% after 49 days.

[4] = system: AsPC-1 tumors (human pancreas adenocarcinoma); test: Therapy study, AsPC-1 tumors, single-dose and double-dose administration; assay type: in vivo, Nude mice
Description: Nude mice bearing AsPC-1 tumors (human pancreas adenocarcinoma) at the back were used for the therapy study. One week after inoculation of the AsPC-1 cells, six mice were injected with a single dose of ^177Lu-14 (FAUC Lu469) (28±6 MBq/animal, group B, single-dose administration) at day 0 and another six animals were injected with a double-dose of ^177Lu-14 (FAUC Lu469) (2×29±4 MBq/animal, group C, double-dose administration), consisting of the first dose (29 MBq/animal) at the starting day of radiotherapy (day 0) and the second dose (29 MBq/animal) at day 10 after begin of treatment. Six additional animals were injected with saline as untreated control animals (group A). The body weight and the tumor diameter were measured five times a week.

Chain of hNTS1 (P30989 whole entry): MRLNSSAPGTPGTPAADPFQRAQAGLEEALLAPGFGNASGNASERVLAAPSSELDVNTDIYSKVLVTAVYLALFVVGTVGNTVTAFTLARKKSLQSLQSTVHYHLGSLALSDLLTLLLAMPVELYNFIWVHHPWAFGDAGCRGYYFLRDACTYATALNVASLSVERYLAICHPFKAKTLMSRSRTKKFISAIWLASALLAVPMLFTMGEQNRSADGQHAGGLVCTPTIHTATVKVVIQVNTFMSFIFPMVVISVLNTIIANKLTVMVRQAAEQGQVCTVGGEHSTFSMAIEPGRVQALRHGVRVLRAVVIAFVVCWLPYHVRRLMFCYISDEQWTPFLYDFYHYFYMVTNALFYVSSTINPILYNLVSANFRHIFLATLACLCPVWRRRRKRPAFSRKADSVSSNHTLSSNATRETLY
Chain of hNTS2 (O95665 whole entry): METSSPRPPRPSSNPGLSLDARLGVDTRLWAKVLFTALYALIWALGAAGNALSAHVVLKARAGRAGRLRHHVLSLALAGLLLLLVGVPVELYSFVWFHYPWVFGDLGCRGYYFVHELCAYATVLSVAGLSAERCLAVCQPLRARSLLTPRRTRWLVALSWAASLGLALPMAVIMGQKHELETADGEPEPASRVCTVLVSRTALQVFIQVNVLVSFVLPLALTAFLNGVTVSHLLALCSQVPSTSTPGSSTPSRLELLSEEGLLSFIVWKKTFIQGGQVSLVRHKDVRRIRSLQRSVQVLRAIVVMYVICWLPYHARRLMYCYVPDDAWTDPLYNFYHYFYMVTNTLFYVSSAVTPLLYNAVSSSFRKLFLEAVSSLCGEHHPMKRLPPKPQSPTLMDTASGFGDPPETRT
Chain of hD3 (P35462 whole entry): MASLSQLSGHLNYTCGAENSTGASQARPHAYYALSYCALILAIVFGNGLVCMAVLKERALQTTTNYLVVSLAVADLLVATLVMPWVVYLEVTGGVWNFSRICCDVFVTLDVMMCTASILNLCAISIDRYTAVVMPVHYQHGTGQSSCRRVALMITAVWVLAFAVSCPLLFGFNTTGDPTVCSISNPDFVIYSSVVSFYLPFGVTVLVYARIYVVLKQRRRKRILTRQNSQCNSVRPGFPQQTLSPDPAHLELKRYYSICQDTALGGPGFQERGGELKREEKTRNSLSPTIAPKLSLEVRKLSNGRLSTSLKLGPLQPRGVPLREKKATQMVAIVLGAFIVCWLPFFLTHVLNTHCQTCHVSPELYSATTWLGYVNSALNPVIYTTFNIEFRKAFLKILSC
Chain of h5-HT2 (P28223 whole entry): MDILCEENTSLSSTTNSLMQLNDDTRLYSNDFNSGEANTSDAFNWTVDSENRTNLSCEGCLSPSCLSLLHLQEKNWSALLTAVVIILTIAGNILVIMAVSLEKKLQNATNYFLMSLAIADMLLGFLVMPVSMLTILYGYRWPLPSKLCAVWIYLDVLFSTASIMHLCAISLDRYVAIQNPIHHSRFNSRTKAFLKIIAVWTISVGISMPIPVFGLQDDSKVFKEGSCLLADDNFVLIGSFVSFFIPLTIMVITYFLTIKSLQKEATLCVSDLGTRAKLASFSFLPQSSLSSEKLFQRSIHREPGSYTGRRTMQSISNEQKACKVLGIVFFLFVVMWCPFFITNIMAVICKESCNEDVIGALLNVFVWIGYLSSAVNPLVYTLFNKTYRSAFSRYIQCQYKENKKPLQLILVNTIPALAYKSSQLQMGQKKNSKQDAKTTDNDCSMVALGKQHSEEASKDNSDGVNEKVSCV
Chain of hD2long (P14416 whole entry): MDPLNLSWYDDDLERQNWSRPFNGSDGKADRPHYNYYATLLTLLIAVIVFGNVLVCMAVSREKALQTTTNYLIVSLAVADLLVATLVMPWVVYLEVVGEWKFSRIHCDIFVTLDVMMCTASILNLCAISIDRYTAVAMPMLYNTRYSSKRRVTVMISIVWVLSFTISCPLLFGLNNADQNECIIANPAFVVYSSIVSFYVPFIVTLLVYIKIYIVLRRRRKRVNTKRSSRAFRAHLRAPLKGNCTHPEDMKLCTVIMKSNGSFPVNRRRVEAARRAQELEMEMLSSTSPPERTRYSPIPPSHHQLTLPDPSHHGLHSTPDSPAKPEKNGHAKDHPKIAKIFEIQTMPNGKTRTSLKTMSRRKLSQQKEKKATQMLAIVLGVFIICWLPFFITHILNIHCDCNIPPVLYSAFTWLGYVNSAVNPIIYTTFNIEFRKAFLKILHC
Chain of hD2short (P14416 1-414 isoform P14416-2): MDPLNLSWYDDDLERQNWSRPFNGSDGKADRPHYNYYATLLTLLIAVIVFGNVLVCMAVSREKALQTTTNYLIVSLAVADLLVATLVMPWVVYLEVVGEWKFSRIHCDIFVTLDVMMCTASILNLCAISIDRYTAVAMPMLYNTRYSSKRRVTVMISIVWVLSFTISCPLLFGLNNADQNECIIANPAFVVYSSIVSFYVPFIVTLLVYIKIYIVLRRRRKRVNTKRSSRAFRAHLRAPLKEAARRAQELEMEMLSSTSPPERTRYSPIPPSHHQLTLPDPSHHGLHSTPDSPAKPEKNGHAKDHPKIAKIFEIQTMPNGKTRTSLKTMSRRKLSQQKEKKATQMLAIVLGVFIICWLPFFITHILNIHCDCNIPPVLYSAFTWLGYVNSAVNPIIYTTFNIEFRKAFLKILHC
Chain of hD1 (P21728 whole entry): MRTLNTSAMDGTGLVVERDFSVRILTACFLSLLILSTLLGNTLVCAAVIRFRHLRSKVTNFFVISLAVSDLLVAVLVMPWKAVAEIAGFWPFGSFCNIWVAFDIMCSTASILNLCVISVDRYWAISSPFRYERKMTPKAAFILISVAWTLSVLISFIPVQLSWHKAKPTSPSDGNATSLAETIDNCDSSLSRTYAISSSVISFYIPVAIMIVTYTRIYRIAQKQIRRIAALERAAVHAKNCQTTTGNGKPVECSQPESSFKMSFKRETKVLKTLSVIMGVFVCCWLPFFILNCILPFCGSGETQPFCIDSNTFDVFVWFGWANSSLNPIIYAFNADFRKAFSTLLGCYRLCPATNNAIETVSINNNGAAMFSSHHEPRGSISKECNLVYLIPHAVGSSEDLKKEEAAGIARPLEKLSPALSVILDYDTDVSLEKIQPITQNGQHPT
Chain of hD5 (P21918 whole entry): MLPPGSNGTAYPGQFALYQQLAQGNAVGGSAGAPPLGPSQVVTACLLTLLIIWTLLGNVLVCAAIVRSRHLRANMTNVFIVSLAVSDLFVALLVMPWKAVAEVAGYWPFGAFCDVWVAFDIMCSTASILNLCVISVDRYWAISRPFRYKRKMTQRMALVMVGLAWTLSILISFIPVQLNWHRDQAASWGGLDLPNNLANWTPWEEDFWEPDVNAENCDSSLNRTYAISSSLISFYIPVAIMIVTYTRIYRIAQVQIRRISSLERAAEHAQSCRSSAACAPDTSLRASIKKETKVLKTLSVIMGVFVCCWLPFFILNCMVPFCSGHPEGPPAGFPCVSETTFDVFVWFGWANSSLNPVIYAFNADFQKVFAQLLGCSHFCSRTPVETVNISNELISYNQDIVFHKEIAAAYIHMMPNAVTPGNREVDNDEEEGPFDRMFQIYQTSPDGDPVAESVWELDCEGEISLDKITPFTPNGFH

With `COc1cccc(OC)c1-c1cc(C(=O)NC2(C(=O)O)C3CC4CC(C3)CC2C4)nn1-c1ccc(-c2cn(CCCN(C)CCCNC(=O)CN3CCN(CC(=O)O)CCN(CC(=O)O)CCN(CC(=O)O)CC3)nn2)cc1C(C)C` (stereo not drawn) [Compound 13] the Ki (hNTS1) was 1.9 nM and the Ki (hNTS2) was 100 nM.
In the case of `COc1cccc(OC)c1-c1cc(C(=O)NC2(C(=O)O)C3CC4CC(C3)CC2C4)nn1-c1ccc(-c2cn(CCCN(C)CCCNC(=O)CN3CCN(CC(=O)[O-])CCN(CC(=O)[O-])CCN(CC(=O)[O-])CC3)nn2)cc1C(C)C.[Lu+3]` (stereo not drawn) [Compound 14], the Ki (hNTS1) is reported as 0.19 nM, the Ki (hNTS2) is reported as 13 nM and the Ki (hD1) is reported as greater than 50000 nM. The Ki (hD5) was greater than 50000 nM, the Ki (hD2long) was greater than 50000 nM and the Ki (hD2short) was greater than 50000 nM. For the same compound, the Ki (hD3) was greater than 50000 nM, the Ki (hD4.4) was greater than 50000 nM and the Ki (p5-HT1A) was greater than 50000 nM. It also gave a Ki (h5-HT2) greater than 50000 nM and a Ki (pα1) greater than 50000 nM.
Compound `COc1cccc(OC)c1-c1cc(C(=O)NC2(C(=O)O)C3CC4CC(C3)CC2C4)nn1-c1ccc(-c2cn(CCCN(C)C[C@@H](O)CNC(=O)CN3CCN(CC(=O)O)CCN(CC(=O)O)CCN(CC(=O)O)CC3)nn2)cc1C(C)C` (stereo partly drawn) [Compound 19] has a Ki (hNTS1) of 1.6 nM and a Ki (hNTS2) of 59 nM.
`COc1cccc(OC)c1-c1cc(C(=O)NC2(C(=O)O)C3CC4CC(C3)CC2C4)nn1-c1ccc(-c2cn(CCCN(C)C[C@@H](O)CNC(=O)CN3CCN(CC(=O)[O-])CCN(CC(=O)[O-])CCN(CC(=O)[O-])CC3)nn2)cc1C(C)C.[Lu+3]` (stereo partly drawn) [Compound 20] gave a Ki (hNTS1) of 1.4 nM and a Ki (hNTS2) of 27 nM.
For `COc1cccc(OC)c1-c1cc(C(=O)NC2(C(=O)O)C3CC4CC(C3)CC2C4)nn1-c1ccc(-c2cn(CCCN(C)CCCNC(=O)CN3CCN4CCN5CCN(CC3)CC(=O)[O][177Lu]([O]C(=O)C4)[O]C(=O)C5)nn2)cc1C(C)C` (stereo not drawn) [^177Lu-14], the “Stability in human plasma (degradation products by radio-HPLC)” value [1] was “No degradation products were observed”, the “log D7.4” value [2] was −1.8±0.1 and the Uptake blood ([3]; 24 h p.i.) was 0.36 % ID/g. For the same compound, the Uptake blood ([3]; 48 h p.i.) was 0.14 % ID/g, the Uptake brain ([3]; 24 h p.i.) was 0.06 % ID/g and the Uptake brain ([3]; 48 h p.i.) was 0.04 % ID/g. The Uptake femur ([3]; 24 h p.i.) was 0.89 % ID/g, the Uptake femur ([3]; 48 h p.i.) was 0.75 % ID/g and the Uptake heart ([3]; 24 h p.i.) was 1.05 % ID/g. It also gave an Uptake heart ([3]; 48 h p.i.) of 0.56 % ID/g, an Uptake intestine ([3]; 24 h p.i.) of 1.40 % ID/g and an Uptake intestine ([3]; 48 h p.i.) of 0.77 % ID/g. The Uptake kidney ([3]; 24 h p.i.) was 4.54 % ID/g, the Uptake kidney ([3]; 48 h p.i.) was 2.48 % ID/g and the Uptake liver ([3]; 24 h p.i.) was 11.61 % ID/g. The Uptake liver ([3]; 48 h p.i.) was 5.45 % ID/g, the Uptake lung ([3]; 24 h p.i.) was 4.15 % ID/g and the Uptake lung ([3]; 48 h p.i.) was 1.23 % ID/g. For the same compound, the Uptake muscle ([3]; 24 h p.i.) was 0.29 % ID/g, the Uptake muscle ([3]; 48 h p.i.) was 0.19 % ID/g and the Uptake spleen ([3]; 24 h p.i.) was 2.40 % ID/g. For the same compound, the Uptake spleen ([3]; 48 h p.i.) was 1.60 % ID/g, the “Uptake HT29 tumor” value (HT29; 24 h p.i.) was 18.64 % ID/g and the “Uptake HT29 tumor” value (HT29; 48 h p.i.) was 16.34 % ID/g. The “Uptake PC3 tumor” value (PC3; 24 h p.i.) was 15.57 % ID/g, the “Uptake PC3 tumor” value (PC3; 48 h p.i.) was 10.85 % ID/g and the “Uptake AsPC1 tumor” value (AsPC1; 24 h p.i.) was 22.36 % ID/g. For the same compound, the “Uptake AsPC1 tumor” value (AsPC1; 48 h p.i.) was 14.41 % ID/g, the AsPC1-tumor retention (AsPC1; day 7 p.i.) was 13.2±2.1 % ID/g and the “tumor inhibition growth factor” value (PC1-3 tumors; after 49 days) was 64%. For the same compound, the “survival versus untreated control animals” value (PC1-3 tumors) was “significantly longer survival”, the “tumor growth and tumor size versus untreated control animals” value (PC1-3 tumors) was “significantly inhibited tumor growth and a reduction in tumor size” and the “longer survival than untreated control animals” value ([4]; double-dose 2×29±4 MBq/animal (group C), day 0 and day 10) was “+209%”. The “tumor growth and tumor size versus untreated control animals” value ([4]; single dose 28±6 MBq/animal (group B), between day 11 and 21, adjusted p=0.049) was “significant tumor growth inhibition and a reduction in tumor size”.
